Like-named read-outs stand apart in the source and are kept apart here.
How the values were obtained:
[1] = human, in vivo
[2] = clinical; details: both, human, in vivo
[3] = clinical; details: human, in vivo
[4] = both, human, in vivo
[5] = Trial 1 safety and tolerability; details: for Number of AEs considered related to the drug(s): 73 drug-related of 78 AEs
[6] = steady state; cited from earlier work
[7] = GZR alone 200 mg once daily, ref historical database, cited from earlier work
[8] = Trial 2 safety and tolerability

C=CCN1CC[C@]23c4c5ccc(O)c4O[C@H]2C(=O)CC[C@@]3(O)[C@H]1C5 [NAL, naloxone]
Apparent terminal T½, GM [1]: 5.20 h
Cmax/D, GM [1]: 0.149 ng/mL/mg
AUC(0-inf) [2]: 0.416 ng·h/mL
Cmax [2]: 0.139 ng/mL
Tmax [2]: 0.98 h
AUC(0-inf) ([2]; 2 mg): 0.47 ng·h/mL
Cmax ([2]; 2 mg): 0.165 ng/mL
Tmax [3]: 1.24 h

COC(=O)N[C@H](C(=O)N1CCC[C@H]1c1nc(-c2ccc3c(c2)O[C@@H](c2ccccc2)n2c-3cc3cc(-c4c[nH]c([C@@H]5CCCN5C(=O)[C@@H](NC(=O)OC)C(C)C)n4)ccc32)c[nH]1)C(C)C [EBR, elbasvir]
AUC(0-inf) [2]: 2.55 µM·h
Tmax [2]: 3.01 h
AUC(0-inf) ([2]; po, 50 mg): 2.08 µM·h
GMRs for AUC0-∞, Cmax, and C24 (range over the three parameters) [4]: 1.13–1.22
Tolerability of coadministration with BUP/NAL [5]: generally well tolerated
Number of AEs considered related to the drug(s) [5]: 4

C=C[C@@H]1C[C@]1(NC(=O)[C@@H]1C[C@@H]2CN1C(=O)[C@H](C(C)(C)C)NC(=O)O[C@@H]1C[C@H]1CCCCCc1nc3ccc(OC)cc3nc1O2)C(=O)NS(=O)(=O)C1CC1 [GZR, grazoprevir]
C24, GM [1]: 13.5 nM
GMRs for AUC0-24, Cmax, and C24 (range over the three parameters) [1]: 0.80–0.97
Exposure in HCV-infected people compared with healthy people [6]: ~2 fold
C24, GM [7]: 13.9 nM
Cmax ([7]; read-out: Cmax, GM): 583 nM
Tolerability of coadministration with BUP/NAL [8]: generally well tolerated
AUC(0-t) [3]: 2.13 µM·h
Cmax [3]: 473 nM
Tmax [3]: 4 h

O=C1CC[C@@]2(O)[C@H]3Cc4ccc(O)c5c4[C@@]2(CCN3CC2CC2)[C@H]1O5 [NTX, naltrexone]
Number of AEs considered related to the drug(s) [5]: three

— paper PMC6226112 (Clinical and Translational Science, 2018)
